{
  "source": "patent US6545053B1",
  "about": "“Tricyclic compounds and drug compositions containing same” (Asahi Kasei Kogyo Kabushiki Kaisha, priority 1996, dated 2003)",
  "target": "T1, human β3 (Homo sapiens, UniProt P13945)",
  "T1 construct": "And then full length of human β3 gene was cloned using this fragment as a probe; expressed in transfected cells; host or cells: CHO cells (Chinese hamster ovary), pcDNA3 vector",
  "T1 sequence (P13945 whole entry, the tested form may be a part)": "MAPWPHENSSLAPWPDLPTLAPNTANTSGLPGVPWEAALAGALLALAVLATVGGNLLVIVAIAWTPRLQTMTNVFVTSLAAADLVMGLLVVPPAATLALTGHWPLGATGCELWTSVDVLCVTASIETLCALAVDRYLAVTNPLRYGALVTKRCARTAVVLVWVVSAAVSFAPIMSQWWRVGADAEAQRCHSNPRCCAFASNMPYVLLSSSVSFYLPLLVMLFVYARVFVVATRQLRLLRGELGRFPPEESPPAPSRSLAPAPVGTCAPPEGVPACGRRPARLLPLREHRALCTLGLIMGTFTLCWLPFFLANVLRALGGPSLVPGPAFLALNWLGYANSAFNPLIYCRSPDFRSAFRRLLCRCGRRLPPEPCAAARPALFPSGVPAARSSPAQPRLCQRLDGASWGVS",
  "assay": "Human β3-agonist activity (cAMP in CHO cells transfected with human β3 gene)",
  "type": "cell-based",
  "conditions": "for Emax: CHO, read-out: Intrinsic activity (%)",
  "description": "Human β3-agonist Activity\nHuman β3-agonist activity was examined using CHO cells (chinese hamster ovarian cells) to which pcDNA3 (in vitrogen) cells inserted human β3 gene was transfected. Human β3 fragment was obtained by PCR using human fat tissue cDNA (supplied from Clontech) with a β3 primer [Krief et al, J. Clin. Invest.\nThe cells were cultured in a HAM F-12 medium containing 10% of fetal bovine serum, 400 μg/ml of Geneticin (Gibco BRL). 100 U/ml penicillin and 100 μg/ml streptomycin. 5×10^5 cells were placed on a 6-well plate and cultured for 24 hours, after which the medium was changed to a HAM F-12 medium without serum and was kept for 2 hours. Each test compound was first dissolved in DMSO, and then diluted with a HAM F-12 medium containing 1 mM isobutylmethyl xanthine and 1 mM ascorbic acid. A 10-fold dilution in the range of 10^−5 to 10^−12 M was added into the cell.\nAfter culturing for 30 minutes, culture medium was withdrawn, 0.5 ml of 1 N NaOH was added and was kept for 20 minutes. And then 0.5 ml of 1 N acetic acid was added with subsequent agitation and centrifugation. Finally the concentration of cAMP were analyzed using cAMP EIA KIT (Cayman). […] Isoprotelenol was purchased from Research Biochimicals International.",
  "key": {"[1]": {"conditions": "cAMP, CHO cells with human β3, read-out: ED50 (the source's name)"}},
  "note": "Where a name gives a salt, the structure may show the parent alone. Read-outs that look alike come from different tables or passages of the source.",
  "data": [
    {"compound": "CCN(CC)S(=O)(=O)Nc1cc(C(O)CNCCOc2ccc3c(c2)[nH]c2ccccc23)ccc1O", "note": "(racemic) [Example 88, (±)-N′-[5-[2-[2-(9H-Carbazol-2-yloxy)ethylamino]-1-hydroxyethyl]-2-hydroxyphenyl]-N,N-diethylsulfamide Hydrochloride]", "values": [
      {"measurement": "EC50", "result": 390, "unit": "nM"},
      {"measurement": "Emax", "result": 86, "unit": "%"}
    ]},
    {"compound": "CN(C)S(=O)(=O)c1cc(C(O)CNCCOc2ccc3c(c2)[nH]c2ccccc23)ccc1O", "note": "(racemic) [Example 89, (±)-N,N-Dimethyl-(5-[2-[2-(9H-carbazol-2-yloxy)ethylamino]-1-hydroxyethyl]-2-hydroxy]benzenesulfonamide Hydrochloride]", "values": [
      {"measurement": "Emax", "result": 73, "unit": "%"},
      {"measurement": "EC50", "setting": "[1]", "result": 350, "unit": "nM"}
    ]},
    {"compound": "COC(CNCCOc1ccc2c(c1)[nH]c1ccccc12)c1ccc(O)c(NS(C)(=O)=O)c1", "note": "(racemic) [Example 90, (±)-N-[5-[2-[2-(9H-Carbazol-2-yloxy)ethylamino]-1-methoxyethyl]-2-hydroxyphenyl]methanesulfonamide Hydrochloride]", "values": [
      {"measurement": "EC50", "result": 190, "unit": "nM"},
      {"measurement": "Emax", "result": 102, "unit": "%"}
    ]},
    {"compound": "CS(=O)(=O)Nc1cc([C@@H](O)CNCCOc2ccc3c(c2)[nH]c2ccccc23)ccc1O", "note": "[Example 12, (R)-N-[5-[2-[2-(9H-Carbazol-2-yloxy)ethylamino]-1-hydroxyethyl]-2-hydroxyphenyl]methanesulfonamide Hydrochloride]", "values": [
      {"measurement": "EC50", "result": 0.14, "unit": "nM"},
      {"measurement": "Emax", "result": 113, "unit": "%"}
    ]},
    {"compound": "CS(=O)(=O)Nc1cc([C@H](O)CNCCOc2ccc3c(c2)[nH]c2ccccc23)ccc1O", "note": "[Example 13, (S)-N-[5-[2-[2-(9H-Carbazol-2-yloxy)ethylamino]-1-hydroxyethyl]-2-hydroxyphenyl]methanesulfonamide Hydrochloride]", "values": [
      {"measurement": "EC50", "result": 2.7, "unit": "nM"},
      {"measurement": "Emax", "result": 110, "unit": "%"}
    ]},
    {"compound": "CS(=O)(=O)Nc1cccc([C@@H](O)CNCCOc2ccc3c(c2)[nH]c2ccccc23)c1", "note": "[Example 14, (R)-N-[3-[2-[2-(9H-Carbazol-2-yloxy)ethylamino]-1-hydroxyethyl]phenyl]methanesulfonamide Hydrochloride]", "values": [
      {"measurement": "EC50", "result": 2.8, "unit": "nM"},
      {"measurement": "Emax", "result": 97, "unit": "%"}
    ]},
    {"compound": "CS(=O)(=O)Nc1cccc([C@H](O)CNCCOc2ccc3c(c2)[nH]c2ccccc23)c1", "note": "[Example 15, (S)-N-[3-[2-[2-(9H-Carbazol-2-yloxy)ethylamino]-1-hydroxyethyl]phenyl]methanesulfonamide Hydrochloride]", "values": [
      {"measurement": "EC50", "result": 110, "unit": "nM"},
      {"measurement": "Emax", "result": 88, "unit": "%"}
    ]},
    {"compound": "C[C@H](COc1ccc2c(c1)[nH]c1ccccc12)NC[C@H](O)c1ccccc1", "note": "[Example 35, (R,R)-2-[N-[1-(9H-Carbazol-2-yloxy)propan-2-yl]amino]-1-phenylmethanol Hydrochloride]", "values": [
      {"measurement": "Emax", "result": 90, "unit": "%"},
      {"measurement": "EC50", "setting": "[1]", "result": 520, "unit": "nM"}
    ]},
    {"compound": "CS(=O)(=O)Nc1cccc([C@@H](O)CNCCOc2ccc3c(c2)oc2ccccc23)c1", "note": "[Example 70, (R)-N-[3-[2-[2-(Dibenzofuran-3-yloxy)ethylamino]-1-hydroxyethyl]phenyl]methanesulfonamide Hydrochloride]", "values": [
      {"measurement": "EC50", "result": 300, "unit": "nM"},
      {"measurement": "Emax", "result": 76, "unit": "%"}
    ]},
    {"compound": "CN(C)S(=O)(=O)Nc1cc([C@@H](O)CNCCOc2ccc3c(c2)[nH]c2ccccc23)ccc1O", "note": "[Example 73, (R)-N′-[5-[2-[2-(9H-Carbazol-2-yloxy)ethylamino]-1-hydroxyethyl]-2-hydroxyphenyl]-N,N-dimethylsulfamide Hydrochloride]", "values": [
      {"measurement": "EC50", "result": 0.038, "unit": "nM"},
      {"measurement": "Emax", "result": 102, "unit": "%"}
    ]},
    {"compound": "CN(C)S(=O)(=O)Nc1cc([C@H](O)CNCCOc2ccc3c(c2)[nH]c2ccccc23)ccc1O", "note": "[Example 74, (S)-N′-[5-[2-[2-(9H-Carbazol-2-yloxy)ethylamino]-1-hydroxyethyl]-2-hydroxyphenyl]-N,N-dimethylsulfamide Hydrochloride]", "values": [
      {"measurement": "EC50", "result": 0.74, "unit": "nM"},
      {"measurement": "Emax", "result": 114, "unit": "%"}
    ]},
    {"compound": "CN(C)S(=O)(=O)Nc1cc([C@@H](O)CNCCOc2ccc3c(c2)oc2ccccc23)ccc1O", "note": "[Example 75, (R)-N′-[5-[2-[2-(Dibenzofuran-3-yloxy)ethylamino]-1-hydroxyethyl]-2-hydroxyphenyl]-N,N-dimethylsulfamide Hydrochloride]", "values": [
      {"measurement": "EC50", "result": 88, "unit": "nM"},
      {"measurement": "Emax", "result": 105, "unit": "%"}
    ]}
  ]
}
